The text below walks through data of a melting point compilation (Tetko et al.; mined from patent text by program, amines drawn as free bases though some values may be those of a salt).

Take `Cc1c(NC(=O)CC(C)(C)C)c2c(c3c1C(c1ccc(C(C)C)cc1)CO3)CCC2` (configuration not stated): the melting point was in the range of 201 to 202 °C. Next, `CCOC(=O)COCC1CCCN(C(=O)c2cnc(NC(=N)N)s2)C1` (racemic): 156 °C; `CC(C)(C)OC(=O)C(Nc1ccccc1)C(=O)OC(C)(C)C`: 94 °C.

As to `NS(=O)(=O)c1cc2cc(N(Cc3ccccc3)Cc3ccccc3)ccc2s1`, the melting point is 122 to 124 °C.

Molecule `CCOC(=O)COc1cc(C(C)C)c(NC(=O)CN2CCN(CCSc3nc4ccccc4o3)CC2)c(C(C)C)c1` yielded a melting point of 118 to 120 °C. Regarding `Cc1cccc(-c2nc(C(C)C)[nH]c2-c2cccc(-c3ccc(C(=O)N4CCS(=O)CC4)cc3)c2)n1`, the melting point fell in the range of 136 to 140 °C. Take `NCCCCCCCCCCCCCCCCCC(=O)O`: the melting point was 162 to 163 °C. As for `Cn1nc(C(=O)NCc2ccc(Cl)cc2)c(=O)c2cc(C#CCO)cnc21`, the figure is 201 to 206 °C. In the case of `CC(=O)SCC(C(=O)NC(Cc1ccc(O)c(O)c1)C(=O)O)C(F)(F)F` (configuration not stated), the melting point lay in the range of 175 to 184 °C.

As for `CCC(CC)Cn1c(=O)c(=O)[nH]c2cc(Cl)c([N+](=O)[O-])cc21`, the melting point was 232 to 233 °C.

`CC(=O)c1ccc(OCC(O)COc2ccccc2)cc1O` (configuration not stated) yielded a melting point of 63 to 65 °C. Next, `CCOC(=O)C1=C(C)NC(=O)N(C(=O)OCC)C1c1ccccc1C(F)(F)F` (configuration not stated): 161 to 163 °C; `COc1cc(OC(C)(C)C(=O)O)c(C=O)cc1-c1cccs1`: 187 to 188 °C; `O=C(c1ccc(Cl)cc1)c1cccc2cc[nH]c12`: 148 to 149 °C. `CNc1ccc(CCc2ccc(OC)c(OC)c2)cc1` gave a melting point of 82 to 84 °C.

Regarding `O=C1C2CCN(CC2)C1Cc1ccc(-c2ccc(F)cc2)cc1` (configuration not stated), the melting point was in the range of 122 to 123 °C. As for `O=C1CC(CO)(C(=O)N(Cc2ccccc2)Cc2ccccc2)CN1Cc1ccccc1` (configuration not stated), the figure is 127 to 129 °C. As for `CN(Cc1cccc(-c2ccc(CC3SC(=O)NC3=O)cc2)c1)C(=O)Cc1ccccc1` (configuration not stated), the melting point was 73 °C. Molecule `O=C(O)C1CCCN1c1ncccc1[N+](=O)[O-]` (configuration not stated) had a melting point of 137 to 139 °C. Next, `O=C(Nc1ccc(C(=O)N2C[C@@H]3CCCN3S(=O)(=O)c3ccccc32)cc1)c1ccccc1-c1ccccc1`: 142 to 143 °C; `CC[C@H]1COC(=O)N1c1cc(C)nc(Oc2c(C)cc(Cl)cc2C)c1C(=O)OC`: 144 to 146 °C. On to `O=C(O)c1cn(-c2ccncc2F)c2cc(F)c(F)cc2c1=O`, for which the melting point was 271 to 273 °C. Next, `COc1c(C2CCN(CCCCNC(=O)c3ccc(-c4ccc(C#N)cc4)cn3)CC2)ccc2c1CCCC2`: 140 °C; `CC(C)(C)OC(=O)CC(NC(=O)C1CCCN2C(=O)CCC(NS(C)(=O)=O)C(=O)N12)C(=O)COC(=O)c1ccccc1Oc1ccccc1` (configuration not stated): 85 to 100 °C. As for `COC(=O)c1c(CC#N)ncn1C1CCCCO1` (configuration not stated), the figure is 82 to 83 °C; as for `CNc1nc(-c2cncc(-c3ccccc3)c2)c2cc(OC)c(OC)cc2n1`, 177 to 179 °C; as for `Cn1c(Cl)cnc1C(c1cc(F)ccc1F)S(=O)(=O)c1ccc(Cl)cc1` (configuration not stated), 179 to 180 °C. Next, `O=C1Oc2ccccc2Sc2ccccc21`: 124 °C; `Cc1ccc(C(=O)O)c(S(C)(=O)=O)c1`: 174 °C. Take `COc1cccc(N(C)C(=O)Oc2ccc(Cl)c(C(C)(C)C)c2)n1`: the melting point was 54 to 56 °C.

`O=C(NCCO)c1ccc2c3c(cc([N+](=O)[O-])c2c1)NCC3CCl` (configuration not stated) had a melting point of 150 to 151 °C. Next, `NS(=O)(=O)c1cc2c(s1)S(=O)(=O)N(CCN1CCOCC1)N=C2`: 164 to 166 °C; `COc1ccc(-c2nn(Cc3ccncc3)c(=O)cc2-c2ccncc2)cc1`: 193 to 194 °C; `COC(=O)C(/C(=C\c1ccccc1)C(N)=O)=C(\C)c1cc(OC)c(OC)c(OC)c1`: 118 to 120 °C. As for `COc1cccc(S(=O)(=O)n2c(COC(C)(C)C(=O)O)cc3nc(Cl)ccc32)c1`, the figure is 130 °C; as for `Cn1nc(-c2cc(F)c([N+](=O)[O-])cc2F)cc1C(F)(F)F`, 80 to 81 °C.

On to `CC(=O)C(=Cc1ccc(C#N)cc1)C(C)=O`, for which the melting point lay in the range of 86 to 88 °C.

Molecule `Cc1ccc(OCCCCOc2ccc(C)cc2)cc1` gave a melting point of 104 °C. Next, `COc1cccc(CNC(CCCCCC(=O)O)C(C)C)c1` (configuration not stated): 64 to 67 °C.

`CC(O)(CCBr)c1ccc(-c2ccc(F)cc2)cc1` (configuration not stated): the melting point was 72 to 74 °C. Next, `COc1ccc(Nc2ncc3cc(-c4c(Cl)cccc4Cl)c(=O)n(C)c3n2)cn1`: 233 to 235 °C. As for `CCn1ncc2c(ON=C(C)C)c(C(=O)c3ccccc3)cnc21`, the figure is 115 to 116 °C. As for `O=C(Nc1cc(Cl)ccc1N1CCCCC1)c1ccncc1`, the figure is 141 to 143 °C; as for `Cc1cc(Cl)ccc1N=CN(C)SN(C1CCCCC1)C1CCCCC1`, 110 to 111 °C.

The molecule `C(=C\c1cc(/C=C/c2ccc3cc[nH]c3c2)n[nH]1)/c1ccc(Oc2ccccc2)cc1` showed a melting point of 175 to 182 °C. Next, `CSCc1ccccc1S(N)(=O)=O`: 119 to 124 °C. Molecule `O=C(Cc1ccc(F)cc1C(=O)O)Nc1cccc(/C=C/c2nc(C3CCC3)cs2)c1` gave a melting point of 211 to 212 °C. `CC(CCCO[Si](C)(C)C(C)(C)C)C1CCC2C3=CC=C4C(C)(C)C(O[Si](C)(C)C(C)(C)C)CCC4(C)C3CCC21C` (configuration not stated) returned a melting point of 98 to 106 °C. Next, `CC(C)(C)OC(=O)NC1CCN(C(=O)OCCC2(C(=O)NCC(F)(F)F)c3ccccc3-c3ccccc32)CC1`: 84 to 86 °C; `O=C(O)c1cnc2n(c1=O)CCCC2=NNc1ccccc1`: 267 to 268 °C. `Cc1nc2cc3c(cc2c(=O)[nH]1)C(N(C)c1ccc(C(=O)NC(CCC(=O)NC(C(=O)O)c2ccc(CC(=O)O)cc2)C(=O)O)c(F)c1)CC3` (configuration not stated) registered a melting point of 175 to 177 °C. As for `N#CC1(CCc2ccccc2)CCCCCN1C(=O)c1ccccc1` (configuration not stated), the figure is 116 to 118 °C; as for `Cc1oc(-c2ccccc2)nc1CCc1ccc(CCCCCC2OC(=O)NC2=O)cc1` (configuration not stated), 116 to 117 °C; as for `COc1cc(CCNC(=S)Nc2nccs2)ccc1OC(C)C`, 140 to 141 °C.

`CCOC(=O)c1ccc2snnc2c1` registered a melting point of 74.5 to 77 °C.

For the molecule `O=C(NCCCCCCCCn1ccnc1)c1ccc(Cl)s1`, the melting point was in the range of 95 to 97 °C. As for `Cc1cc(Br)cc(C)c1N[N+](=O)[O-]`, the figure is 129 to 131 °C; as for `COC(=O)c1cccc(-c2ccccc2OC)c1`, 92 to 93 °C; as for `CCCc1nc(C)cn1-c1cc(F)ccc1[N+](=O)[O-]`, 36 to 39 °C. Turning to `C=CC(=O)Oc1ccc(NS(C)(=O)=O)cc1`, the melting point was 136 to 140 °C. Molecule `O=C(O[C@H]1[C@H](OC(=O)c2ccccc2)[C@@H](CO)O[C@@H]1CO)c1ccccc1` yielded a melting point of 120 to 122 °C.

Regarding `O=C(NN=Cc1ccccc1)c1ccc(O)cc1`, the melting point worked out at 226 °C.
